Source: publication PMC9358669, “Native metabolomics identifies the rivulariapeptolide family of protease inhibitors” (Nature Communications, 2022)
Where two headings read alike, the source gives them in different places.

Key:
Elastase = target: T1, Elastase (Sus scrofa, UniProt P00772); experiment: Elastase inhibition, fluorogenic substrate assay (MeOSuc-Ala-Ala-Pro-Val-AMC); type: biochemical, Sus domesticus; settings: for IC50 / Mean (RFU/s): 40 min pre-incubation; for IC50: mean, n = 3; for Mean (RFU/s): Elastase
T1 construct: purchased Sigma-Aldrich

Chymotrypsin = target: T2, Chymotrypsin (Bos taurus, UniProt P00766); experiment: Chymotrypsin inhibition, fluorogenic substrate assay (Suc-Ala-Ala-Pro-Phe-AMC); type: biochemical; settings: for Mean (RFU/s): Chymotrypsin
T2 construct: purchased Sigma-Aldrich

Proteinase K = target: T3, Proteinase K (Parengyodontium album, UniProt P06873); experiment: Proteinase K inhibition, fluorogenic substrate assay (Suc-Ala-Ala-Pro-Phe-AMC); type: biochemical, Tritirachium album; settings: 40 min pre-incubation; for IC50: mean, n = 3; for Mean (RFU/s): Proteinase K
T3 construct: purchased Roche

[1] = inhibitor concentration 0.0508053 nM
[2] = inhibitor concentration 0.152416 nM
[3] = inhibitor concentration 0.457247 nM
[4] = inhibitor concentration 1.37174 nM
[5] = inhibitor concentration 4.11523 nM
[6] = inhibitor concentration 12.3457 nM
[7] = inhibitor concentration 37.037 nM
[8] = inhibitor concentration 111.111 nM
[9] = inhibitor concentration 333.333 nM
[10] = inhibitor concentration 1000 nM
[11] = inhibitor concentration 3000 nM
[12] = replacement of Abu (compound 2) for Leu (1)
[13] = 40 min pre-incubation, mean, n = 3, read-out: IC50 Chymotrypsin
[14] = inhibitor concentration 0.0508053 nM, 40 min pre-incubation
[15] = inhibitor concentration 0.152416 nM, 40 min pre-incubation
[16] = inhibitor concentration 0.457247 nM, 40 min pre-incubation
[17] = inhibitor concentration 1.37174 nM, 40 min pre-incubation
[18] = inhibitor concentration 4.11523 nM, 40 min pre-incubation
[19] = inhibitor concentration 12.3457 nM, 40 min pre-incubation
[20] = inhibitor concentration 37.037 nM, 40 min pre-incubation
[21] = inhibitor concentration 111.111 nM, 40 min pre-incubation
[22] = inhibitor concentration 333.333 nM, 40 min pre-incubation
[23] = inhibitor concentration 1000 nM, 40 min pre-incubation
[24] = inhibitor concentration 3000 nM, 40 min pre-incubation
[25] = Supplementary Table 5, compounds of this study, read-out: Chymotrypsin IC50

T3 sequence (P06873 106-384): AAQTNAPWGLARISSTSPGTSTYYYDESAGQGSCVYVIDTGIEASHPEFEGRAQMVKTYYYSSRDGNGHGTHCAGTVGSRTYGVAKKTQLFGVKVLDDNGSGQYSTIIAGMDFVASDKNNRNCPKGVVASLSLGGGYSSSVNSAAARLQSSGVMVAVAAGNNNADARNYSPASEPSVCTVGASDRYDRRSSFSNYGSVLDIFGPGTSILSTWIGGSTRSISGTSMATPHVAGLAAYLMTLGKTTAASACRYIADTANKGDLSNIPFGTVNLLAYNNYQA
T1 sequence (P00772 27-266): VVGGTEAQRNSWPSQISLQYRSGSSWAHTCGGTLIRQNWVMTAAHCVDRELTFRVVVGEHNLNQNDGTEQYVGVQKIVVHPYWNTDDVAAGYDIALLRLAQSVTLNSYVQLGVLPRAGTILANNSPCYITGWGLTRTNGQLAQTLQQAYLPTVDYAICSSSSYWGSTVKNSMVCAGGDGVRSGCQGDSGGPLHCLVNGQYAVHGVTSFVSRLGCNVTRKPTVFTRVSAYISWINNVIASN

Row | SMILES | IC50 (Elastase) [nM] | Mean (RFU/s) (Elastase; [1]) | Mean (RFU/s) (Elastase; [2]) | Mean (RFU/s) (Elastase; [3]) | Mean (RFU/s) (Elastase; [4]) | Mean (RFU/s) (Elastase; [5]) | Mean (RFU/s) (Elastase; [6]) | Mean (RFU/s) (Elastase; [7]) | Mean (RFU/s) (Elastase; [8]) | Mean (RFU/s) (Elastase; [9]) | Mean (RFU/s) (Elastase; [10]) | Mean (RFU/s) (Elastase; [11]) | IC50 (Chymotrypsin; [13]) [nM] | Mean (RFU/s) (Chymotrypsin; [14]) | Mean (RFU/s) (Chymotrypsin; [15]) | Mean (RFU/s) (Chymotrypsin; [16]) | Mean (RFU/s) (Chymotrypsin; [17]) | Mean (RFU/s) (Chymotrypsin; [18]) | Mean (RFU/s) (Chymotrypsin; [19]) | Mean (RFU/s) (Chymotrypsin; [20]) | further results
1 | CCCC(=O)N1CCCC1C(=O)NC(C(=O)NC1C(=O)NC(CC(C)C)C(=O)NC2CCC(O)N(C2=O)C(Cc2ccccc2)C(=O)N(C)C(Cc2ccc(O)cc2)C(=O)NC(C(C)C)C(=O)OC1C)C(C)OC(=O)C1CCCN1C(=O)CCC (stereo not shown) [Rivulariapeptolide 1185, rivulariapeptolide 1185] | 23.6 | 0.9257 | 0.9033 | 0.876 | 0.8487 | 0.7693 | 0.589 | 0.369 | 0.07933 | 0.02233 | 0 | 0 | 13.2 | 5.046 | 5.119 | 5.025 | 5.024 | 4.153 | 2.685 | 1.084 | decrease in potency towards elastase (Elastase; [12]): fivefold; Mean (RFU/s) (Chymotrypsin; [21]): 0.416 RFU/s; Mean (RFU/s) (Chymotrypsin; [22]): 0.1823 RFU/s; Mean (RFU/s) (Chymotrypsin; [23]): 0 RFU/s; Mean (RFU/s) (Chymotrypsin; [24]): 0 RFU/s; IC50 (Chymotrypsin; [25]): 13.2 nM; increase in potency towards chymotrypsin (Chymotrypsin; [12]): more than threefold; IC50 (Proteinase K): 55.3 nM; Mean (RFU/s) (Proteinase K; [1]): 6.418 RFU/s; Mean (RFU/s) (Proteinase K; [2]): 6.488 RFU/s; Mean (RFU/s) (Proteinase K; [3]): 6.316 RFU/s; Mean (RFU/s) (Proteinase K; [4]): 6.389 RFU/s; Mean (RFU/s) (Proteinase K; [5]): 6.178 RFU/s; Mean (RFU/s) (Proteinase K; [6]): 5.621 RFU/s; Mean (RFU/s) (Proteinase K; [7]): 4.195 RFU/s; Mean (RFU/s) (Proteinase K; [8]): 1.657 RFU/s; Mean (RFU/s) (Proteinase K; [9]): 0.4863 RFU/s; Mean (RFU/s) (Proteinase K; [10]): 0.13 RFU/s; Mean (RFU/s) (Proteinase K; [11]): 0.04267 RFU/s
2 | CC=C1NC(=O)[C@@H](NC(=O)[C@@H](NC(=O)[C@@H]2CCCN2C(=O)CCC)[C@@H](C)OC(=O)C2CCCN2C(=O)CCC)[C@@H](C)OC(=O)[C@H](C(C)C)NC(=O)[C@H](Cc2ccc(O)cc2)N(C)C(=O)[C@H](CC(C)C)N2C(=O)[C@H](CC[C@H]2O)NC1=O (stereo partly shown) [Rivulariapeptolide 1121, rivulariapeptolide 1121] | 13.2 | 0.8433 | 0.7923 | 0.7877 | 0.7943 | 0.7343 | 0.4323 | 0.094 | 0.02167 | 0 | 0 | 0 | 35.5 | 4.522 | 4.745 | 4.969 | 4.65 | 4.6 | 4.156 | 1.852 | Mean (RFU/s) (Chymotrypsin; [21]): 1.527 RFU/s; Mean (RFU/s) (Chymotrypsin; [22]): 0.623 RFU/s; Mean (RFU/s) (Chymotrypsin; [23]): 0.1967 RFU/s; Mean (RFU/s) (Chymotrypsin; [24]): 0 RFU/s; IC50 (Chymotrypsin; [25]): 35.5 nM; IC50 (Proteinase K): 48 nM; Mean (RFU/s) (Proteinase K; [1]): 6.561 RFU/s; Mean (RFU/s) (Proteinase K; [2]): 6.281 RFU/s; Mean (RFU/s) (Proteinase K; [3]): 6.268 RFU/s; Mean (RFU/s) (Proteinase K; [4]): 6.292 RFU/s; Mean (RFU/s) (Proteinase K; [5]): 6.214 RFU/s; Mean (RFU/s) (Proteinase K; [6]): 5.471 RFU/s; Mean (RFU/s) (Proteinase K; [7]): 4.069 RFU/s; Mean (RFU/s) (Proteinase K; [8]): 0.93 RFU/s; Mean (RFU/s) (Proteinase K; [9]): 0.1023 RFU/s; Mean (RFU/s) (Proteinase K; [10]): 0 RFU/s; Mean (RFU/s) (Proteinase K; [11]): 0 RFU/s
